Assay: Half-life in human serum administered once daily

- half-life: 10 h
SMILES: Nc1nc(=O)n([C@@H]2CS[C@H](CO)O2)cc1F [EMTRICITABINE]

Reference: ChEMBL document CHEMBL4385590, “A Survey of the Structures of US FDA Approved Combination Drugs” (J Med Chem, 2019)
